Assay results published in the supplement of paper PMC9663587.

Legend:
BSJ-03-123 = compound: CC(=O)c1c(C)c2cnc(Nc3ccc(N4CCN(CCOCCOCCOCCNC(=O)COc5cccc6c5C(=O)N(C5CCC(=O)NC5=O)C6=O)CC4)cn3)nc2n(C2CCCC2)c1=O [BSJ-03-123]; test: increase in dead-cell fraction, 72 h; higher = more death;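 also: breast cancer cell lines in 384-well plates, stained with Hoechst plus LIVE/DEAD far red dye and imaged, cells above an LDR intensity threshold counted dead, Hoechst-negative corpses included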
[1] = compound: CC(=O)c1c(C)c2cnc(Nc3ccc(N4CCNCC4)cn3)nc2n(C2CCCC2)c1=O; test: as above
[2] = compound: CCN1CCN(Cc2ccc(Nc3ncc(F)c(-c4cc(F)c5nc(C)n(C(C)C)c5c4)n3)nc2)CC1; test: as above
Neratinib/HKI272 = compound: CCOc1cc2ncc(C#N)c(Nc3ccc(OCc4ccccn4)c(Cl)c3)c2cc1NC(=O)/C=C/CN(C)C [Neratinib/HKI272]; test: as above
[3] = compound: CCc1cnn2c(NCc3ccc[n+]([O-])c3)cc(N3CCCC[C@H]3CCO)nc12; test: as above
LEE011/Ribociclib = compound: CN(C)C(=O)c1cc2cnc(Nc3ccc(N4CCNCC4)cn3)nc2n1C1CCCC1 [LEE011/Ribociclib]; test: as above
THZ1 [4] = compound: T1, CN(C)C/C=C/C(=O)Nc1ccc(C(=O)Nc2cccc(Nc3ncc(Cl)c(-c4c[nH]c5ccccc45)n3)c2)cc1 [THZ1]; test: as above
Flavopiridol [5] = compound: T2, CN1CC[C@H](c2c(O)cc(O)c3c(=O)cc(-c4ccccc4Cl)oc23)[C@H](O)C1 [Flavopiridol]; test: as above
[6] = compound: CC(=O)c1c(C)c2cnc(Nc3ccc(N4CCNCC4)cn3)nc2n(C2CCCC2)c1=O; test: GR value, 72 h; higher = faster growth (1 = untreated, <0 = killing);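 also: breast cancer and non-malignant breast epithelial lines, nine half-log doses, viable cells counted by Hoechst and LIVE/DEAD dye imaging versus time-zero plates and DMSO controls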
THZ531 = compound: CN(C)C/C=C/C(=O)Nc1ccc(C(=O)N2CCC[C@@H](Nc3ncc(Cl)c(-c4c[nH]c5ccccc45)n3)C2)cc1 [THZ531]; test: as above
THZ1 [7] = compound: T1, THZ1; test: as above
Flavopiridol [8] = compound: T2, Flavopiridol; test: as above

HCC70 was tested, and the “increase in dead-cell fraction” value (BSJ-03-123; 0.001 µM) was -0.0022, the “increase in dead-cell fraction” value (BSJ-03-123; 0.003162 µM) was -0.0076 and the “increase in dead-cell fraction” value (BSJ-03-123; 0.01 µM) was -0.0082. The “increase in dead-cell fraction” value (BSJ-03-123; 0.03162 µM) was -0.0024, the “increase in dead-cell fraction” value (BSJ-03-123; 0.1 µM) was 0.0042 and the “increase in dead-cell fraction” value (BSJ-03-123; 0.3162 µM) was -0.0019. For the same cell line, the “increase in dead-cell fraction” value (BSJ-03-123; 1 µM) was -0.0038, the “increase in dead-cell fraction” value (BSJ-03-123; 3.162 µM) was 0.0046 and the “increase in dead-cell fraction” value (BSJ-03-123; 10 µM) was 0.317. For the same cell line, the “increase in dead-cell fraction” value ([1]; 0.0003162 µM) was -0.0042, the “increase in dead-cell fraction” value ([1]; 0.001 µM) was 0.0102 and the “increase in dead-cell fraction” value ([1]; 0.003162 µM) was -0.0045. For the same cell line, the “increase in dead-cell fraction” value ([1]; 0.01 µM) was 0.0054, the “increase in dead-cell fraction” value ([1]; 0.03162 µM) was -0.0062 and the “increase in dead-cell fraction” value ([1]; 0.1 µM) was 0.012. For the same cell line, the “increase in dead-cell fraction” value ([1]; 0.3162 µM) was -0.0151, the “increase in dead-cell fraction” value ([1]; 1 µM) was -0.0002 and the “increase in dead-cell fraction” value ([1]; 3.162 µM) was -0.0047. The “increase in dead-cell fraction” value ([2]; 0.001 µM) was 0.0027, the “increase in dead-cell fraction” value ([2]; 0.003162 µM) was -0.0178 and the “increase in dead-cell fraction” value ([2]; 0.01 µM) was -0.0021. For the same cell line, the “increase in dead-cell fraction” value ([2]; 0.03162 µM) was -0.0067, the “increase in dead-cell fraction” value ([2]; 0.1 µM) was -0.0175 and the “increase in dead-cell fraction” value ([2]; 0.3162 µM) was -0.0179. For the same cell line, the “increase in dead-cell fraction” value ([2]; 1 µM) was -0.0058, the “increase in dead-cell fraction” value ([2]; 3.162 µM) was 0.169 and the “increase in dead-cell fraction” value ([2]; 10 µM) was 0.639. The “increase in dead-cell fraction” value (Neratinib/HKI272; 0.0003162 µM) was 0.0098, the “increase in dead-cell fraction” value (Neratinib/HKI272; 0.001 µM) was 0.0142 and the “increase in dead-cell fraction” value (Neratinib/HKI272; 0.003162 µM) was 0.015. For the same cell line, the “increase in dead-cell fraction” value (Neratinib/HKI272; 0.01 µM) was 0.0157, the “increase in dead-cell fraction” value (Neratinib/HKI272; 0.03162 µM) was 0.0249 and the “increase in dead-cell fraction” value (Neratinib/HKI272; 0.1 µM) was 0.0312. The “increase in dead-cell fraction” value (Neratinib/HKI272; 0.3162 µM) was 0.0482, the “increase in dead-cell fraction” value (Neratinib/HKI272; 1 µM) was 0.0703 and the “increase in dead-cell fraction” value (Neratinib/HKI272; 3.162 µM) was 0.147. The “increase in dead-cell fraction” value ([3]; 0.0001 µM) was 0.0046, the “increase in dead-cell fraction” value ([3]; 0.0003162 µM) was 0.0037 and the “increase in dead-cell fraction” value ([3]; 0.001 µM) was -0.003. The “increase in dead-cell fraction” value ([3]; 0.003162 µM) was -0.0058, the “increase in dead-cell fraction” value ([3]; 0.01 µM) was 0.0306 and the “increase in dead-cell fraction” value ([3]; 0.03162 µM) was 0.699. For the same cell line, the “increase in dead-cell fraction” value ([3]; 0.1 µM) was 0.734, the “increase in dead-cell fraction” value ([3]; 0.3162 µM) was 0.721 and the “increase in dead-cell fraction” value ([3]; 1 µM) was 0.74. For the same cell line, the “increase in dead-cell fraction” value (LEE011/Ribociclib; 0.001 µM) was -0.0029, the “increase in dead-cell fraction” value (LEE011/Ribociclib; 0.003162 µM) was 0.0024 and the “increase in dead-cell fraction” value (LEE011/Ribociclib; 0.01 µM) was -0.0096. The “increase in dead-cell fraction” value (LEE011/Ribociclib; 0.03162 µM) was -0.0087, the “increase in dead-cell fraction” value (LEE011/Ribociclib; 0.1 µM) was -0.0125 and the “increase in dead-cell fraction” value (LEE011/Ribociclib; 0.3162 µM) was -0.0098. For the same cell line, the “increase in dead-cell fraction” value (LEE011/Ribociclib; 1 µM) was -0.0021, the “increase in dead-cell fraction” value (LEE011/Ribociclib; 3.162 µM) was -0.0069 and the “increase in dead-cell fraction” value (LEE011/Ribociclib; 10 µM) was -0.0152. The “increase in dead-cell fraction” value (THZ1 [4]; 0.0001 µM) was 0.0011, the “increase in dead-cell fraction” value (THZ1 [4]; 0.0003162 µM) was 0.0017 and the “increase in dead-cell fraction” value (THZ1 [4]; 0.001 µM) was -0.0087. For the same cell line, the “increase in dead-cell fraction” value (THZ1 [4]; 0.003162 µM) was 0.0017, the “increase in dead-cell fraction” value (THZ1 [4]; 0.01 µM) was 0.0017 and the “increase in dead-cell fraction” value (THZ1 [4]; 0.03162 µM) was 0.227. For the same cell line, the “increase in dead-cell fraction” value (THZ1 [4]; 0.1 µM) was 0.676, the “increase in dead-cell fraction” value (THZ1 [4]; 0.3162 µM) was 0.872 and the “increase in dead-cell fraction” value (THZ1 [4]; 1 µM) was 0.868. For the same cell line, the “increase in dead-cell fraction” value (Flavopiridol [5]; 0.0001 µM) was -0.003, the “increase in dead-cell fraction” value (Flavopiridol [5]; 0.0003162 µM) was -0.0033 and the “increase in dead-cell fraction” value (Flavopiridol [5]; 0.001 µM) was -0.0119. The “increase in dead-cell fraction” value (Flavopiridol [5]; 0.003162 µM) was -0.0038, the “increase in dead-cell fraction” value (Flavopiridol [5]; 0.01 µM) was 0.0008 and the “increase in dead-cell fraction” value (Flavopiridol [5]; 0.03162 µM) was 0.009. For the same cell line, the “increase in dead-cell fraction” value (Flavopiridol [5]; 0.1 µM) was 0.0351, the “increase in dead-cell fraction” value (Flavopiridol [5]; 0.3162 µM) was 0.487 and the “increase in dead-cell fraction” value (Flavopiridol [5]; 1 µM) was 0.401. It also gave a GR value ([6]; 0.0003162 µM) of 0.988 GR, a GR value ([6]; 0.001 µM) of 1.07 GR and a GR value ([6]; 0.003162 µM) of 1.08 GR. It also gave a GR value ([6]; 0.01 µM) of 1.07 GR, a GR value ([6]; 0.03162 µM) of 1.09 GR and a GR value ([6]; 0.1 µM) of 0.961 GR. The GR value ([6]; 0.3162 µM) was 1.06 GR, the GR value ([6]; 1 µM) was 1.05 GR and the GR value ([6]; 3.162 µM) was 0.896 GR. It also gave a GR value (THZ531; 0.0001 µM) of 1.09 GR, a GR value (THZ531; 0.0003162 µM) of 0.962 GR and a GR value (THZ531; 0.001 µM) of 1.15 GR. For the same cell line, the GR value (THZ531; 0.003162 µM) was 1.02 GR, the GR value (THZ531; 0.01 µM) was 1.16 GR and the GR value (THZ531; 0.03162 µM) was 0.962 GR. For the same cell line, the GR value (THZ531; 0.1 µM) was -0.197 GR, the GR value (THZ531; 0.3162 µM) was -0.793 GR and the GR value (THZ531; 1 µM) was -0.941 GR. For the same cell line, the GR value (THZ1 [7]; 0.0001 µM) was 0.985 GR, the GR value (THZ1 [7]; 0.0003162 µM) was 1.01 GR and the GR value (THZ1 [7]; 0.001 µM) was 1.04 GR. For the same cell line, the GR value (THZ1 [7]; 0.003162 µM) was 1.02 GR, the GR value (THZ1 [7]; 0.01 µM) was 0.707 GR and the GR value (THZ1 [7]; 0.03162 µM) was -0.291 GR. For the same cell line, the GR value (THZ1 [7]; 0.1 µM) was -0.838 GR, the GR value (THZ1 [7]; 0.3162 µM) was -0.936 GR and the GR value (THZ1 [7]; 1 µM) was -0.944 GR. The GR value (Flavopiridol [8]; 0.0001 µM) was 1.05 GR, the GR value (Flavopiridol [8]; 0.0003162 µM) was 1.01 GR and the GR value (Flavopiridol [8]; 0.001 µM) was 1.1 GR. For the same cell line, the GR value (Flavopiridol [8]; 0.003162 µM) was 1.16 GR, the GR value (Flavopiridol [8]; 0.01 µM) was 0.998 GR and the GR value (Flavopiridol [8]; 0.03162 µM) was 0.791 GR. It also gave a GR value (Flavopiridol [8]; 0.1 µM) of 0.371 GR, a GR value (Flavopiridol [8]; 0.3162 µM) of -0.694 GR and a GR value (Flavopiridol [8]; 1 µM) of -0.815 GR.
